Laboratory results: PubChem BioAssay AID1845203 (Molecular Pharmacology Branch, DTP, NCI, 2023)
pIC50: −log10 of the molar value.

Tested on: G-401 tumor spheroids, viability % test/control
Experiment: Anticancer human tumor G-401 cell line growth inhibition;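 note: spheroids exposed to compound for 7 days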;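 for viability, T/C: 100% = DMSO vehicle-treated spheroids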
Settings: spheroids with HUVEC and MSC; for pIC50: curve of first compound; for viability, T/C: stronger effect = lower value
From the text: Multicellular complex tumor spheroid response to DNA repair inhibitors in combination with DNA-damaging drugs
This study explores the anticancer activities of DNA-damaging drugs and inhibitors of DNA damage repair, both as single agents and in combinations. Complex tumor spheroids comprised of malignant cells, endothelial cells and mesenchymal stem cells served as an in vitro model for human solid tumors. This model system incorporates physiologically relevant features and patient-derived or established malignant cell lines with clinically relevant genetic alterations from many tumor types. Twenty-six patient-derived or established malignant cell lines were evaluated representing sarcoma, melanoma, small cell lung cancer (SCLC), non-small cell lung cancer (NSCLC), as well as bladder, ovarian and pancreatic cancers. The concentration ranges selected for each drug and investigational agent were based upon clinically achievable concentrations if the clinical Cmax of the agent was known.
Compounds. The drugs and compounds olaparib (NSC753686), talazoparib (NSC767125), berzosertib (NSC777718), elimusertib (NSC800525), nedisertib (NSC802822), VX-984 (NSC792969), AZD-1390 (NSC803789), temozolomide (NSC362856), topotecan (NSC609699), trabectedin (NSC813783), staurosporine (NSC755774), and gemcitabine (NSC613327) were obtained from the National Cancer Institute (NCI) Developmental Therapeutics Program Chemical Repository. The FDA-approved anticancer drug set is available from the Developmental Therapeutics Program at https://dtp.cancer.gov/organization/dscb/obtaining/available_plates.htm. […] The stock solutions were prepared in dimethyl sulfoxide (DMSO, Sigma-Aldrich, St. Louis, MO, cat. D2650) at 400-fold the tested concentration and stored at -70 degrees C. Prior to their use, the stock solutions were diluted in fresh medium and the final DMSO concentration in the assay was 0.25% (v/v). All drugs and investigational agents were tested over a range starting from a high concentration at or near the clinical Cmax and decreasing in half-log increments. If the clinical Cmax for an agent had not been determined, the highest concentration tested was 10 microM.
Cell Lines. The patient-derived cancer cell (PDC) lines: 156681-154-R-J1-PDC, 283228-195-R-J1-PDC, 287954-098-R-J1-PDC, 292921-168-R-J2-PDC, 349418-098-R-PDC, 425362-245-T-J1-PDC, 556581-035-R-J1-PDC, and BL0293-F563-PDC were received from the NCI Patient-Derived Models Repository (PDMR, https://pdmr.cancer.gov). The established cell lines HS-SY-2 (RRID:CVCL_8719), MPNST, and SYO-1 (RRID:CVCL_7146) were obtained from the Sloan Kettering Institute. The alveolar soft parts sarcoma cell line ASPS-1 (RRID:CVCL_S738) was established at the NCI and grown from internal seed stocks. The following established cell lines were purchased from the American Type Culture Collection (ATCC, Manassas, VA): G-401 (ATCC, cat. CRL-1441, RRID:CVCL_0270), SW982 (ATCC, cat. HTB-93, RRID:CVCL_1734), VA-ES-BJ (ATCC, cat. CRL-2138, RRID:CVCL_1785), NCI-H719 (ATCC, cat. CRL-5837, RRID:CVCL_1582), NCI-H196 (ATCC, cat. CRL-5823, RRID:CVCL_1509), NCI-H841 (ATCC, cat. CRL-5845, RRID:CVCL_1595), NCI-H1618 (ATCC, cat. CRL-5879, RRID:CVCL_1480), NCI-H1876 (ATCC, cat. CRL-5902, RRID:CVCL_1503), DMS 114 (ATCC, cat. CRL-2066; RRID:CVCL_1174), NCI-H211 (ATCC, cat. CRL-5824; RRID:CVCL_1529), and SW 1271 (ATCC, cat. CRL-2177, RRID:CVCL_1716). The small cell lung cancer cell line COR-L88 was purchased from Sigma-Aldrich (cat. 92031917-1VL, RRID:CVCL_1141). The non-small cell lung cancer cell lines NCI-H226 (RRID:CVCL_1544) and NCI-H322M (RRID:CVCL_1557) were established at the NCI and grown from internal seed stocks. Pooled donor human umbilical vein endothelial cells (HUVEC, Lonza, cat. CC-2519) and human mesenchymal stem cells (hMSC, Lonza, cat. PT-2501) were purchased from Lonza (Walkersville, MD).
Cell Culture. All cells were maintained in an incubator at 37 degrees C and 5% CO2 with 95% humidity. […]

## CNCc1ccc(-c2cc(-c3nc(-c4ccc(S(=O)(=O)C(C)C)cc4)cnc3N)on2)cc1 + COc1cc2c(cc1O)CCNC21CSC2c3c(OC(C)=O)c(C)c4c(c3C(COC1=O)N1C(O)C3Cc5cc(C)c(OC)c(O)c5C(C21)N3C)OCO4
Second compound 30 pM
  pIC50: 5.85
Second compound 94.9 pM
  pIC50: 6.28
Second compound 0.0003 µM
  pIC50: 7.99
Second compound 0.000949 µM
  pIC50: > 8.02
Second compound 0.003 µM
  pIC50: > 8.02
Second compound 30 pM, first compound 0.00949 µM
  viability, T/C: 100%
Second compound 30 pM, first compound 0.03 µM
  viability, T/C: 95.5%
Second compound 30 pM, first compound 0.0949 µM
  viability, T/C: 103%
Second compound 30 pM, first compound 0.3 µM
  viability, T/C: 88.7%
Second compound 30 pM, first compound 0.949 µM
  viability, T/C: 58.4%
Second compound 30 pM, first compound 3 µM
  viability, T/C: 35%
Second compound 94.9 pM, first compound 0.00949 µM
  viability, T/C: 94.4%
Second compound 94.9 pM, first compound 0.03 µM
  viability, T/C: 94.8%
Second compound 94.9 pM, first compound 0.0949 µM
  viability, T/C: 89.9%
Second compound 94.9 pM, first compound 0.3 µM
  viability, T/C: 60.5%
Second compound 94.9 pM, first compound 0.949 µM
  viability, T/C: 39.5%
Second compound 94.9 pM, first compound 3 µM
  viability, T/C: 25.8%
Second compound 0.0003 µM, first compound 0.00949 µM
  viability, T/C: 48%
Second compound 0.0003 µM, first compound 0.03 µM
  viability, T/C: 51.4%
Second compound 0.0003 µM, first compound 0.0949 µM
  viability, T/C: 38.2%
Second compound 0.0003 µM, first compound 0.3 µM
  viability, T/C: 25.9%
Second compound 0.0003 µM, first compound 0.949 µM
  viability, T/C: 24.1%
Second compound 0.0003 µM, first compound 3 µM
  viability, T/C: 18.6%
Second compound 0.000949 µM, first compound 0.00949 µM
  viability, T/C: 9.02%
Second compound 0.000949 µM, first compound 0.03 µM
  viability, T/C: 10.5%
Second compound 0.000949 µM, first compound 0.0949 µM
  viability, T/C: 12.2%
Second compound 0.000949 µM, first compound 0.3 µM
  viability, T/C: 18.3%
Second compound 0.000949 µM, first compound 0.949 µM
  viability, T/C: 19.3%
Second compound 0.000949 µM, first compound 3 µM
  viability, T/C: 9.87%
Second compound 0.003 µM, first compound 0.00949 µM
  viability, T/C: 0.14%
Second compound 0.003 µM, first compound 0.03 µM
  viability, T/C: 0.14%
Second compound 0.003 µM, first compound 0.0949 µM
  viability, T/C: 0.22%
Second compound 0.003 µM, first compound 0.3 µM
  viability, T/C: 0.29%
Second compound 0.003 µM, first compound 0.949 µM
  viability, T/C: 0.89%
Second compound 0.003 µM, first compound 3 µM
  viability, T/C: 0.21%
